According to patent publication US10761087B2, “Choroidal neovascularization suppressor or drusen formation suppressor, and method for assessing or screening for same” (Link Genomics, Inc., priority 2015, dated 2020):
Where two headings read alike, the source gives them in different places.

Experiments:
mouse = assay: In vivo model test for drusen suppression (TNF-a induced drusen-like structure in retinal region); details: oral, 14 days; oxaprozin 600 mg/kg/day, epalrestat 600 mg/kg/day, zaltoprofen 40 mg/kg/day
Description: In the vicinity of the retina in the posterior segment of eyeball of mouse, 400 ng of Recombinant Mouse TNF-a (R&D Systems, # 410-MT) was administered. After two weeks from administration, an eye ball was extracted, and a formalin-fixed, paraffin-embedded block was prepared. The tissue sample was deparaffinized by treating three times with xylene for 5 minutes each, twice with 100% ethanol for 1 minute each, with 90% ethanol for 1 minute, with 80% ethanol for 1 minute, with 70% ethanol for 1 minute, and with water for 5 minutes. Staining was conducted with a Mayer' s hematoxylin solution for 4 minutes, and with an eosin liquid for 1 minute. After treating for 5 minutes in flowing water, treatments were conducted with 70% ethanol for 1 minute, with 80% ethanol for 1 minute, with 90% ethanol for 1 minute, twice with 100% ethanol for 1 minute each, and three times with xylene for 5 minutes each, followed by mounting with Marinol. After drying for 15 minutes or more at room temperature, the untreated RPE cells, and the RPE cells in which inflammation is induced were observed. An eyeball tissue segment was prepared from a block. After incubation for 30 minutes in a gas-phase incubator at 56° C., the tissue sample was deparaffinized by treating three times with xylene for 5 minutes each, twice with 100% ethanol for 1 minute each, with 90% ethanol for 1 minute, with 80% ethanol for 1 minute, with 70% ethanol for 1 minute, and with water for 5 minutes. After removing a melanin pigment in tissues using Delicate Melanin Bleach Kit for Special Stains and IHC (Polysciences, # 24909-1) according to the manufacturer's protocol, a microwave treatment using a citrate buffer pH 6.0 was conducted for 10 minutes to activate the antigen. After standing still for 30 minutes at room temperature, treatments were conducted with PBS for 5 minutes, with a 3% hydrogen peroxide/PBS solution for 5 minutes, and with PBS for 5 minutes to inactivate an endogenous peroxidase. The sample was stood still in a 3% BSA/PBS solution for 30 minutes at room temperature to block the tissues. As primary antibodies, an anti-E-Cadherin antibody (BD Biosciences, # 610182) that was 500-fold diluted with a 1.5% BSA/PBS solution, and an anti-Cytokeratin antibody (Sigma, # C2931) that was 1000-fold diluted, and an anti-Fibronectin antibody (abcam, # 45688) that was 1000-fold diluted, and an anti-Vimentin antibody (Cell signaling Technology, # 5741) that was 100-fold diluted were added in an amount of 200 μL per one tissue, and caused to react with the tissues for 17 hours at 4° C. The tissues reacted with the primary antibodies were washed three times with PBS for 5 minutes each, then caused to react with a secondary antibody (a Mouse on Mouse (M. O. M.) Elite Peroxidase Kit (Vector Laboratories, # PK-2200) for the anti-E-Cadherin antibody and the anti-Cytokeratin antibody, and a VECTASTAIN Elite ABC Rabbit IgG Kit (Vector Laboratories, # PK-6101) for the anti-Fibronectin antibody and the anti-Vimentin antibody) for 30 minutes at room temperature, then washed three times with PBS for 5 minutes each, and then subjected to an ABC reaction for 30 minutes at room temperature according to the manufacturer's protocol. After washing the tissues three times with PBS for 5 minutes each, color development was caused for 3 minutes at room temperature using an ImmPACT AMEC Red Peroxidase (HRP) Substrate (Vector Laboratories, # SK-4285). The color-developed tissues were stained by using a New hematoxylin Type M (MUTO PURE CHEMICALS CO., LTD., # 30141), and then stood still in flowing water for 3 minutes, and treated with 70% ethanol for 1 minute, with 80% ethanol for 1 minute, with 90% ethanol for 1 minute, twice with 100% ethanol for 1 minute each, and three times with xylene for 5 minutes each, and mounted with the use of Marinol. After drying for 15 minutes or more at room temperature, observation was conducted. […]

[1] = cited from earlier work
RPE cells (ARPE-19) = assay: Focus (drusen-like structure) formation suppression in EMT induction model of RPE cells; format: cell-based, human; details: for Suppression of drusen-like structure formed in the RPE cell model: FIG. 35 to 39; for IC50: Homo sapiens
Description: RPE cells (ARPE-19) were seeded on a plate, and incubated for 5 days at 37° C. […] As a control of EMT induction, a sample to which a compound to be assessed (test drug) is not added was used. After 48 hours from EMT induction, the cells were fixed by treating with a 4% paraformaldehyde solution for 30 minutes at room temperature, and then washed three times with PBS. The cells were treated with a 0.2% Triton-X/PBS solution for 5 minutes, and washed three times with PBS. […] The fluorescent-stained cells were imaged by using an Image Express Micro (available from Molecular Devices), and digitized by using a MetaXpress2.0 (available from Molecular Devices). By analyzing the degree of formation of Focus (Focus level) from the numerical data, a Focus formation suppressing rate was calculated according to the following Formula 1 on the basis of the numerical value at the time of no addition of a compound, and the EMT suppressive effect in each compound was verified. The degree of formation of Focus (Focus level) was determined according to the number and the volume of Focus as indexes.
IC50 in the table was calculated using the following Formula 2.
A: Higher concentration sandwiching 50%
B: Lower concentration sandwiching 50%
C: Inhibition rate at lower concentration sandwiching 50%
D: Inhibition rate at higher concentration sandwiching 50%
RPE cells (ARPE-19) were seeded on a plate, and incubated for 5 days at 37° C. […] As a control of EMT induction, a sample to which a compound to be assessed (test drug) is not added was used. The cells after observation were fixed by treating with a 4% paraformaldehyde solution for 30 minutes at room temperature, and then washed three times with PBS. The cells were treated with a 0.2% Triton-X/PBS solution for 5 minutes, and washed three times with PBS. […] The fluorescent-stained cells were imaged by using an Image Express Micro (available from Molecular Devices), and digitized by using a MetaXpress2.0 (available from Molecular Devices). By analyzing the degree of formation of Focus from the numerical data, a Focus formation suppressing rate was calculated on the basis of the case without addition of a compound and the case without EMT induction, and the EMT suppressive effect in each compound was verified. […] After washing three times with methanol, the cells were dried for 3 hours at room temperature. The dried cells were observed under a microscope.

[2] = Table 3, from the interview form and the package insert of each drug, read-out: Cmax
[3] = quoted in Test examples 2-3, 2-4, 2-5, read-out: Cmax (as quoted in the VEGF test examples)
[4] = Table 1, EMT-induced ARPE-19, compound added simultaneously, 48 hours, read-out: IC50 (Focus formation suppressing rate, EMT suppressive effect)
[5] = Test example 7, EMT-induced ARPE-19, 48 hours, read-out: IC50 values in the drusen-like structure suppressing tests

SMILES	Formation of a drusen-like structure (HE staining) (mouse)	Immunostaining of E-Cadherin in retinal epithelial cells (mouse)	Immunostaining of Fibronectin (mouse)	Shape of retinal pigment epithelial cells (mouse)	Cmax ([1]; Alvo tablet Interview Form, repeated-dose administration, read-out: Cmax) [µM]	Cmax [1, 2] [µM]	Cmax [1, 3] [µM]	Suppression of drusen-like structure formed in the RPE cell model (RPE cells (ARPE-19); EMT-induced ARPE-19, 48 hours)	IC50 (RPE cells (ARPE-19); [4]) [µM]	IC50 (RPE cells (ARPE-19); [5]) [µM]	Cmax ([1]; Pharmaceutical Interview Form, single-dose administration, read-out: Cmax) [µM]	Cmax ([1]; Soleton tablet 80 Interview Form, single-dose administration, depending on the kind of the additive, read-out: Cmax) [µM]
O=C(O)CCc1nc(-c2ccccc2)c(-c2ccccc2)o1 [Oxaprozin, oxaprozin]	apparently suppressed	strongly positive staining was observed between cells	the signal strength of staining was small	cells keeping a cubic shape were abundantly observed	341	341	341	suppresses a drusen-like structure formed in the RPE cell model in a concentration-dependent manner	61	61		
CC(C(=O)O)c1ccc2c(c1)CC(=O)c1ccccc1S2 (stereo not drawn) [Zaltoprofen, zaltoprofen]	apparently suppressed	strongly positive staining was observed between cells	the signal strength of staining was small	cells keeping a cubic shape were abundantly observed		20.4	20.4	suppresses a drusen-like structure formed in the RPE cell model in a concentration-dependent manner	16.5	16.5	20.4	16.8
